The subject of this experiment is intracellular cGMP in CGY-Del1-expressing HEK293 cells. In words: Intracellular cGMP detected by emission ratio in CGY-expressing HEK293 cells stimulated with NOC-7. The experiment is classed as cell-based, Human. As for the experimental part: Human embryonic kidney cells (HEK293) were cultured in Dulbecco's modified eagle medium supplemented with 10% FCS, 1 mM sodium pyruvate, and 0.1 mM nonessential amino acids at 37° C. in 5% CO2, to give HEK293 cells.
The resulting HEK293 cells were transfected by the same method as in Example 2 with CGY-Del1, CGY-Del2, CGY-Del3 and CGY-Del4 expression vectors, to give HEK293 cells expressing each type of CGY.
The cGMP-visualizing probes were used to detect intracellular cGMP generated upon stimulation of the living cells with nitrogen monoxide (NO).
First, to activate the soluble guanylyl cyclase in the HEK293 cells having CGY-Del1 introduced therein obtained in Example 6, NOC-7, a compound for releasing NO spontaneously in a rate-controlled manner, was added to give its final extracellular concentration of 500 μM.
Accordingly, 1 mM 8-Br-cGMP, a phosphodiesterase-resistant analogue of cGMP, was added to the system described above.

Take `CNCCCN(C)/[N+]([O-])=N/O` [NOC-7]: the “emission ratio upon addition of NOC-7” value (500 μM NOC-7) is on record as “rapidly decreased”.
`O=c1onc2cnc3ccccc3n12` [ODQ]: the “NOC-7-induced emission ratio change in cells pre-treated with ODQ” value (10 μM ODQ, 500 μM NOC-7) is “change in the emission ratio elicited by NOC-7 was not observed”.
On to `Nc1nc2c(nc(Br)n2[C@@H]2O[C@@H]3COP(=O)(O)O[C@H]3[C@H]2O)c(=O)[nH]1` [8-Br-cGMP], for which the “emission ratio on addition after NOC-7-induced decrease and recovery” value (added 900 seconds after 500 μM NOC-7, 1 mM 8-Br-cGMP) is “decreased again”.
For `CCCOc1ccccc1-c1nc2nn[nH]c2c(=O)[nH]1` [zaprinast], where the note is “100 μM zaprinast, 500 μM NOC-7”, the “NOC-7-induced emission ratio change in cells treated with zaprinast” value is listed as “later slower increase in the emission ratio was not observed”.

Values taken from US7329494B2, “Method of detection and quantification of cGMP by using a cGMP-visualizing probe” (Japan Science and Technology Corporation, priority 2000, dated 2008).
